Source: the supplement of paper PMC10307832

Assays:
Assay in all cases: relative viability (nuclei count vs DMSO), 5 days (fraction); higher = more cells survive
[1] = compound: C1CSC2=C(C(=O)N1)SC3=C2C=C(C=C3)O [kb NB 142-70] + O=C(CCCCCCC(=O)Nc1ccccc1)NO [Vorinostat] (partner 1 µM)
Method in brief: (§1)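 One day after seeding in 1536-well plates, lung cancer cell lines were dosed by pin tool. Dosing was either single-drug or a fixed anchor-drug dose plus five library-drug doses (not always all listed) in √10 steps. After 5 days, nuclei were stained in one fix-and-stain step and counted on 4× images, and relative viability is the nuclei count of treated wells over that of vehicle wells, given as the median of duplicate plates.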

[2] = compound: NCC(=O)Nc1ccc(-n2nc(C(F)(F)F)cc2-c2ccc3c(ccc4ccccc43)c2)cc1 + Cc1nc(Nc2ncc(C(=O)Nc3c(C)cccc3Cl)s2)cc(N2CCN(CCO)CC2)n1 [Dasatinib] (partner 0.075 µM)
Method in brief: as §1

[3] = compound: NCC(=O)Nc1ccc(-n2nc(C(F)(F)F)cc2-c2ccc3c(ccc4ccccc43)c2)cc1 + O=C(CCCCCCC(=O)Nc1ccccc1)NO [Vorinostat] (partner 1 µM)
Method in brief: as §1

[4] = compound: C1CSC2=C(C(=O)N1)SC3=C2C=C(C=C3)O [kb NB 142-70] + N=C(N)NC(=N)NCCc1ccccc1 [Phenformin] (partner 250 µM)
Method in brief: as §1

Row | Cell Line | relative viability ([1]; first compound 0.1 µM) | relative viability ([1]; first compound 1 µM) | relative viability ([1]; first compound 3.162 µM) | relative viability ([2]; first compound 0.02 µM) | relative viability ([2]; first compound 0.06325 µM) | relative viability ([2]; first compound 0.2 µM) | relative viability ([2]; first compound 0.6325 µM) | relative viability ([2]; first compound 2 µM) | relative viability ([3]; first compound 0.02 µM) | relative viability ([3]; first compound 0.06325 µM) | relative viability ([3]; first compound 0.2 µM) | relative viability ([3]; first compound 0.6325 µM) | relative viability ([3]; first compound 2 µM) | relative viability ([4]; first compound 0.1 µM) | relative viability ([4]; first compound 1 µM) | relative viability ([4]; first compound 3.162 µM)
1 | NCI-H647 | 0.716 | 0.597 | 0.492 | 0.205 | 0.167 | 0.227 | 0.193 | 0.208 | 0.409 | 0.539 | 0.578 | 0.411 | 0.486 | 0.502 | 0.54 | 0.44
2 | SK-LU-1 | 0.831 | 0.642 | 0.371 | 0.165 | 0.186 | 0.181 | 0.175 | 0.181 | 0.804 | 0.798 | 0.91 | 0.71 | 0.821 | 0.546 | 0.451 | 0.265
3 | ChaGo-K-1 | 0.815 | 0.813 | 0.7 | 0.53 | 0.604 | 0.47 | 0.646 | 0.579 | 0.667 | 0.794 | 0.725 | 0.725 | 0.76 | 0.513 | 0.49 | 0.453
4 | NCI-H2342 | 0.858 | 0.782 | 0.649 | 0.313 | 0.331 | 0.312 | 0.285 | 0.305 | 0.871 | 0.817 | 0.663 | 0.864 | 0.743 | 0.615 | 0.619 | 0.502
5 | NCI-H1650 | 0.656 | 0.569 | 0.425 | 0.349 | 0.313 | – | 0.364 | 0.396 | 0.71 | 0.676 | 0.556 | 0.692 | 0.559 | 0.457 | 0.525 | 0.324
6 | NCI-H2009 | 0.724 | 0.95 | 0.688 | 0.314 | 0.332 | 0.327 | 0.279 | 0.305 | 0.698 | 0.741 | 0.792 | 0.805 | 0.766 | 0.477 | 0.547 | 0.429
7 | LOU-NH91 | 0.915 | 0.913 | 0.601 | 0.577 | 0.601 | 0.536 | 0.558 | 0.541 | 0.895 | 0.977 | 0.917 | 0.872 | 1.01 | 0.615 | 0.741 | 0.632
8 | NCI-H2405 | 1.04 | 1.03 | 0.587 | 0.225 | 0.202 | 0.185 | 0.201 | 0.221 | 1.08 | 1.11 | 1.1 | 1.01 | 1.16 | 0.397 | 0.375 | 0.356
9 | SW 900 | 0.597 | 0.593 | 0.388 | – | 0.69 | 0.852 | 0.515 | 0.592 | 0.492 | 0.464 | 0.44 | 0.546 | 0.53 | 0.495 | 0.521 | 0.193
10 | LCLC-97TM1 | 0.82 | 0.773 | 0.515 | 0.901 | 0.809 | 0.797 | 0.827 | 0.752 | 0.596 | 0.713 | 0.699 | 0.69 | 0.637 | 0.407 | 0.462 | 0.416
11 | NCI-H596 | 0.656 | 0.67 | 0.538 | 0.626 | 0.66 | 0.591 | 0.6 | 0.652 | 0.636 | 0.705 | 0.706 | 0.731 | 0.526 | 0.888 | 0.77 | 0.822
12 | NCI-H727 | 1.35 | 1.18 | 1.24 | 0.375 | 0.365 | 0.347 | 0.467 | 0.345 | 1.28 | 0.908 | 1.28 | 1.21 | 1.05 | 0.585 | 0.714 | 0.605
13 | H3255 | 0.973 | 0.864 | 0.842 | 0.477 | 0.343 | 0.348 | 0.337 | 0.347 | 0.766 | 0.84 | 0.872 | 0.809 | 0.722 | 0.358 | 0.362 | 0.371
14 | SK-MES-1 | 1.09 | 1.21 | 0.567 | 0.473 | 0.372 | 0.365 | 0.355 | 0.406 | 1.06 | 1.07 | 1.17 | 1.02 | 1.23 | 0.754 | 0.658 | 0.407
15 | NCI-H1437 | 0.857 | 0.895 | 0.77 | 0.309 | 0.359 | 0.265 | 0.506 | 0.526 | 0.834 | 0.866 | 0.887 | 0.802 | 0.754 | 0.308 | 0.292 | 0.262
16 | LU99A | 0.486 | 0.443 | 0.33 | 0.505 | 0.602 | 0.538 | 0.598 | 0.347 | 0.415 | 0.588 | 0.519 | 0.56 | 0.535 | 0.789 | 0.666 | 0.722

Row | Cell Line | relative viability ([1]; first compound 0.1 µM) | relative viability ([1]; first compound 1 µM) | relative viability ([1]; first compound 3.162 µM) | relative viability ([2]; first compound 0.02 µM) | relative viability ([2]; first compound 0.06325 µM) | relative viability ([2]; first compound 0.2 µM) | relative viability ([2]; first compound 0.6325 µM) | relative viability ([2]; first compound 2 µM) | relative viability ([3]; first compound 0.02 µM) | relative viability ([3]; first compound 0.06325 µM) | relative viability ([3]; first compound 0.2 µM) | relative viability ([3]; first compound 0.6325 µM) | relative viability ([3]; first compound 2 µM) | relative viability ([4]; first compound 0.1 µM) | relative viability ([4]; first compound 1 µM) | relative viability ([4]; first compound 3.162 µM)
17 | NCI-H522 | 0.983 | 0.835 | 0.794 | – | 0.831 | 0.874 | 0.854 | 0.921 | 0.91 | 0.836 | 0.802 | 0.973 | 0.903 | 0.633 | 0.561 | 0.522
18 | HCC-827 | 0.763 | 0.864 | 0.88 | 0.371 | 0.282 | 0.336 | 0.329 | 0.35 | 0.906 | 0.335 | 0.876 | 0.9 | 0.834 | 0.415 | 0.387 | 0.339
19 | LK-2 | 0.417 | 0.279 | 0.219 | 0.32 | 0.325 | 0.271 | 0.266 | 0.263 | 0.445 | 0.279 | 0.244 | 0.288 | 0.256 | 0.5 | 0.403 | 0.318
20 | HCC-366 | 0.473 | 0.372 | 0.231 | 0.659 | 0.644 | 0.615 | 0.621 | 0.624 | 0.254 | 0.423 | 0.419 | 0.357 | 0.435 | 0.637 | 0.588 | 0.604
21 | BEN | 0.553 | 0.585 | 0.573 | 0.283 | 0.332 | 0.244 | 0.333 | 0.304 | 0.579 | 0.526 | 0.56 | 0.593 | 0.586 | 0.25 | 0.263 | 0.239
22 | NCI-H23 | 0.703 | 0.583 | 0.298 | 0.885 | 0.781 | 0.825 | 0.73 | 0.832 | 0.583 | 0.626 | 0.644 | 0.573 | 0.555 | 0.794 | 0.732 | 0.53
23 | NCI-H1395 | 0.7 | 0.748 | 0.701 | 0.442 | 0.422 | 0.358 | 0.444 | 0.39 | 0.761 | 0.82 | 0.686 | 0.646 | 0.924 | 0.45 | 0.484 | 0.434
24 | 201T | 0.943 | 1.02 | 1.06 | 0.518 | 0.571 | 0.56 | 0.53 | 0.542 | 0.926 | 0.968 | 0.957 | 0.974 | 0.935 | 0.453 | 0.418 | 0.492
25 | NCI-H2170 | 0.823 | 0.86 | 0.744 | 0.522 | 0.695 | 0.494 | 0.581 | 0.694 | 0.9 | 0.926 | 0.849 | 0.826 | 0.823 | 0.429 | 0.405 | 0.395
26 | NCI-H460 | 0.733 | 0.755 | 0.436 | 0.425 | 0.597 | 0.543 | 0.494 | 0.547 | 0.707 | 0.662 | 0.687 | 0.737 | 0.661 | 0.55 | 0.596 | 0.347
27 | NCI-H661 | 0.761 | 0.755 | 0.767 | 0.866 | 1.01 | 0.884 | 0.943 | 0.925 | 0.811 | 0.817 | 0.774 | 0.821 | 0.784 | 0.286 | 0.263 | 0.247
28 | HCC-15 | 0.812 | 0.816 | 0.801 | 0.619 | 0.709 | 0.651 | 0.632 | 0.673 | 0.878 | 0.94 | 1.04 | 0.861 | 0.841 | 0.476 | 0.491 | 0.518
29 | ABC-1 | 1.13 | 0.975 | 0.453 | 0.613 | 0.602 | – | 0.59 | 0.49 | 0.917 | 1.15 | – | 1.08 | 1.39 | 0.223 | 0.24 | 0.166
30 | LCLC-103H | 0.856 | 0.873 | 0.877 | 0.439 | 0.458 | 0.485 | 0.465 | 0.433 | 0.674 | 0.831 | 0.818 | 0.77 | 0.862 | 0.352 | 0.317 | 0.318
31 | NCI-H441 | 0.89 | 0.844 | 0.644 | 0.444 | 0.665 | 0.729 | 0.548 | 0.681 | 1.02 | 0.705 | 0.987 | 0.72 | 0.866 | 0.881 | 0.894 | 0.633
32 | EPLC-272H | 0.597 | 0.273 | 0.155 | 0.35 | 0.406 | 0.351 | 0.357 | 0.671 | 0.354 | 0.538 | 0.491 | 0.573 | 0.501 | 0.38 | 0.267 | 0.189
